Among the data in patent US20220153766A1, “CONDENSED TRICYCLIC COMPOUND USED AS KINASE INHIBITOR” (Hangzhou Innogate Pharma Co., Ltd., priority 2019, published 2022) are IC50 and GI50 values, retold here.

The structures appear in SMILES notation.

For test [1], the target named is ALK (Homo sapiens, UniProt Q9UM73). Kind of test: ALK kinase activity inhibition, Caliper mobility shift assay, method 2. The class given is biochemical. The note with it: ALK 1.25 nM, ATP 30 μM. On the procedure:
2. ALK Kinase Activity Inhibition Experiment:
Method 2: Caliper mobility shift assay was used to measure ALK protein kinase activity. The method is basically the same as method 1, with individual parameters adjusted. The initial concentration of the compound is 1 mM, and sequentially diluted 4-fold to make 6 points (7 points for some individual compounds). Use a dispenser Echo 550 to transfer 250 nL of 100-fold final concentration of the compound to the target plate 3573, add 10 μL ALK with final concentration of 1.25 nM, incubate at room temperature for 10 minutes (the negative control well contains 10 μL kinase buffer and 250 nL 100% DMSO; the positive control well contains 10 μL kinase solution and 250 nL 100% DMSO). On the kinase ALK, add 15 μL of ATP with a final concentration of 30 μM and 3 μM of the substrate peptide No. 22 mixed solution to react for 25 minutes; add 30 μL of stop detection solution containing EDTA to stop the kinase reaction. Use Caliper EZ Reader to read the conversion rate. Inhibition rate %=(Average positive control conversion rate %−Sample conversion rate %/(Average positive control conversion rate %−Average negative control conversion rate %). Among them: negative control wells represent the conversion rate readings without enzyme activity; positive control wells represent the conversion rate readings of wells without compound inhibition. Take the log value of the concentration as the X-axis, and the percentage inhibition rate on the Y-axis. Log (inhibitor) vs. response—Variable slope of analysis software GraphPad Prism 5 was used to fit the curve to obtain the IC50 value of each compound on the enzyme activity. Calculation formula: Y=Bottom+(Top−Bottom)/(1+10^((Log IC50−X)*HillSlope)).

In test [2] the target is MAP4K1 (HPK1) (Homo sapiens, UniProt Q92918). The test can be described thus: MAP4K1 (HPK1) kinase activity inhibition, Caliper mobility shift assay. As to conditions: kinase 1.25 nM, ATP 10.1 μM. The class given is biochemical. The method, boiled down: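 HPK1 kinase at 1.25 nM final preincubated 10 min at room temperature with compound (5 points, 5-fold dilutions from 500 nM), then reacted 120 min with 10.1 μM ATP and 3 μM substrate peptide No. 25. EDTA stop; mobility-shift conversion read, IC50 from variable-slope four-parameter fit of % inhibition.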
Sequence of MAP4K1 (HPK1) (Q92918 whole entry): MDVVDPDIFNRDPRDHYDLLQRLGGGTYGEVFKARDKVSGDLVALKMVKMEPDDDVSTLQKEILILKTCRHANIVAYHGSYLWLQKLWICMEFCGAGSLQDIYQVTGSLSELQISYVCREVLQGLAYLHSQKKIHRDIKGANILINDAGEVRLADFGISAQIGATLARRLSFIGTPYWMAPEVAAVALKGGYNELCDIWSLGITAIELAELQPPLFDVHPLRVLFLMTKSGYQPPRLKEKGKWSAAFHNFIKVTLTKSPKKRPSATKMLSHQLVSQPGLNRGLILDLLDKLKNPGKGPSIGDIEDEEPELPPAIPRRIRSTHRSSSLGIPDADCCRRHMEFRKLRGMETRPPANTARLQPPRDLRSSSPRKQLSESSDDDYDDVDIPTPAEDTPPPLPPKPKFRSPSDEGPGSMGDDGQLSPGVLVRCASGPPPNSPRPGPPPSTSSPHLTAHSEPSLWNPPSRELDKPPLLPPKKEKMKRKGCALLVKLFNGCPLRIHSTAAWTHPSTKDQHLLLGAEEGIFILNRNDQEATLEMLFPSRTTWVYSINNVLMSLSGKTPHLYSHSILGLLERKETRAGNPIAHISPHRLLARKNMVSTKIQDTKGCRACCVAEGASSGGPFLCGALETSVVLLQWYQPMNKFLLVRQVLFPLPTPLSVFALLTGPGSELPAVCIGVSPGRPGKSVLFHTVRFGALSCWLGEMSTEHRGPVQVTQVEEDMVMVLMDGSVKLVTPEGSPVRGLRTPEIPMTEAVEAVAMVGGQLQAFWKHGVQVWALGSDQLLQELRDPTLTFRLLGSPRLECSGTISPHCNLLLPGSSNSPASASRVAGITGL

Test [3] addresses Ba/F3_EGFR del19/T790M/C797S cells (Homo sapiens, UniProt P00533, T790M/C797S, cells depend on it, form not given). The test can be described thus: Ba/F3_EGFR (del19-T790M-C797S) cell proliferation inhibition, CTG, method 1. As to conditions: 700 cells/well, 72 h, read-out: Ba/F3_EGFR (del19-T790M-C797S) cell proliferation inhibition (IC50 value) Method 1. The class given is cell-based.

Sequence of Ba/F3_EGFR del19/T790M/C797S cells (P00533 with tags, fused parts or gaps DEL746-750/T790M/C797S, form open): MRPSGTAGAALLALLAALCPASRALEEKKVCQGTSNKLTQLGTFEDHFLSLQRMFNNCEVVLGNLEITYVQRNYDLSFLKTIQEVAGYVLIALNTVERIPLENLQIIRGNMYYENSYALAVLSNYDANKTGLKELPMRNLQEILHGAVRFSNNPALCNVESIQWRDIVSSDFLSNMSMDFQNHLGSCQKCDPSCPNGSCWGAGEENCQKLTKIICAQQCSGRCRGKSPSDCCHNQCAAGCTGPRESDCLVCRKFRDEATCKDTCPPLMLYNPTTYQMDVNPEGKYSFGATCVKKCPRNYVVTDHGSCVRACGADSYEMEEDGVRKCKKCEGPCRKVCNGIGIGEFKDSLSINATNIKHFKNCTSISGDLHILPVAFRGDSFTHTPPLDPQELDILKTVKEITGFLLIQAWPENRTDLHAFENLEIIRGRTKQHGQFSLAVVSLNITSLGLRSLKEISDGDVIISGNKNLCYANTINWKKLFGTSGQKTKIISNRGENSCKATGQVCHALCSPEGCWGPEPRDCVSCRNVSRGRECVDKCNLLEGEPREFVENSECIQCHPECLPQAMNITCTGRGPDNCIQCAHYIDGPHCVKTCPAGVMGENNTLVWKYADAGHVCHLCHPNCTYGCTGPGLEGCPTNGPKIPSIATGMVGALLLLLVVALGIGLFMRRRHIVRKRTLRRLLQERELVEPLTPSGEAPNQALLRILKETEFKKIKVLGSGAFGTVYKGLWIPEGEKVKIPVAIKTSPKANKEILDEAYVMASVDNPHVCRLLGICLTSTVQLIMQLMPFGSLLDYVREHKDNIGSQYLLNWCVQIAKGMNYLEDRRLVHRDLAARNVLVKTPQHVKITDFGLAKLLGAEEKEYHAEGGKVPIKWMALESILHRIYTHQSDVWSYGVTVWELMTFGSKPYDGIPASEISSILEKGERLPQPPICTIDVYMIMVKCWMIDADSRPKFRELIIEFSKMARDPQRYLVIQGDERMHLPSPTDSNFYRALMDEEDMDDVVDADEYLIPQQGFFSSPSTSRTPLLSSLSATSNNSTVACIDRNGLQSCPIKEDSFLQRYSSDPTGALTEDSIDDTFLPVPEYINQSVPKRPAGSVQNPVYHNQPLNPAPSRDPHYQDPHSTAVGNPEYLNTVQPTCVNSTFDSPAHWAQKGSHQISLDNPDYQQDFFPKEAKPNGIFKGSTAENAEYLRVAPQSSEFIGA
Sequence of ALK (Q9UM73 19-1620): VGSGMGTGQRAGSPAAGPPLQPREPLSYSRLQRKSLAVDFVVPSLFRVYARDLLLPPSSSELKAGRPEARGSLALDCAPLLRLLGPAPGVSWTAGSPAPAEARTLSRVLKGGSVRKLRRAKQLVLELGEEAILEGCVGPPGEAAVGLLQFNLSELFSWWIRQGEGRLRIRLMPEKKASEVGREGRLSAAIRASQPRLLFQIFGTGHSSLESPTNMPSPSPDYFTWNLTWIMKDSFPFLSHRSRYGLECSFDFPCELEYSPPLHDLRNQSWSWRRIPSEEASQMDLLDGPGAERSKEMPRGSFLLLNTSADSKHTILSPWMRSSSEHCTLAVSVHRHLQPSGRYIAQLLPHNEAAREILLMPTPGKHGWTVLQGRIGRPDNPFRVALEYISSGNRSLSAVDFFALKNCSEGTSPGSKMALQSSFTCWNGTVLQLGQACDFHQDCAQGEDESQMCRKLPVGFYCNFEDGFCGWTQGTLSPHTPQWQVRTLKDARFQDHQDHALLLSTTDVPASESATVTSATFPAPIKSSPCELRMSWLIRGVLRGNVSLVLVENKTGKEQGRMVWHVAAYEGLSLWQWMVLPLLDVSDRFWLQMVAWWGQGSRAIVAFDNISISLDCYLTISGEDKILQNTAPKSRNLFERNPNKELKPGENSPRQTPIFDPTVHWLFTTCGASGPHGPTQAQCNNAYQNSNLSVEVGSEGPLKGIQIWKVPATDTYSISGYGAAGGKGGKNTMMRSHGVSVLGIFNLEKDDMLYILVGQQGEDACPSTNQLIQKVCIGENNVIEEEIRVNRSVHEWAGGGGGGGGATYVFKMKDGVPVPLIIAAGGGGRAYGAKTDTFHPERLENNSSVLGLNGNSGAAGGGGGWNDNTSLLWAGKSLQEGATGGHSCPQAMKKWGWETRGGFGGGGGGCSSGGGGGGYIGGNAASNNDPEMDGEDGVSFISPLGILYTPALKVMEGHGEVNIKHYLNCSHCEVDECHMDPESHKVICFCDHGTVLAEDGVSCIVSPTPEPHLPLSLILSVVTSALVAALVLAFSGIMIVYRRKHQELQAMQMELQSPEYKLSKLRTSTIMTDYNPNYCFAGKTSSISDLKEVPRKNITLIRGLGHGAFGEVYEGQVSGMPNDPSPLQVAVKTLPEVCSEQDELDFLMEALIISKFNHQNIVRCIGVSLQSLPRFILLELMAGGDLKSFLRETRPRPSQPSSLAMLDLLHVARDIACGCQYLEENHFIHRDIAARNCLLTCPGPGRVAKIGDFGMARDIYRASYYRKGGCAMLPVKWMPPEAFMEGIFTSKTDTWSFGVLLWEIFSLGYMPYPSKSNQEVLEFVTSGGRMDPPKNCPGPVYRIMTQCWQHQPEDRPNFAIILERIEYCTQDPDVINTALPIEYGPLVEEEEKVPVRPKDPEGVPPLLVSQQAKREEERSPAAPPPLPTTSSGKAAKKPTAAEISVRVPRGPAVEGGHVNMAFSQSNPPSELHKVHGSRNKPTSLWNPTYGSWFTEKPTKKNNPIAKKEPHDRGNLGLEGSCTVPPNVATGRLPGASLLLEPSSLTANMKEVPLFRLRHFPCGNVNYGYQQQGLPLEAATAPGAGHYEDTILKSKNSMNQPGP

Consider `Cc1cc(Nc2ncc(Cl)c(Nc3ccccc3P(C)(C)=O)n2)cc2c1N1CCN(C3CCN(C)CC3)C[C@@H]1CO2` [Compound 27R], for which the IC50 in test [1] was 1 to 50 nM; in test [2], at most 1 nM. Moreover, the GI50 in test [3] was below 20 nM.
